{
  "source": "patent US12414997B2",
  "about": "“Brush prodrugs and uses thereof” (Massachusetts Institute of Technology, priority 2018, dated 2025)",
  "key": {"[1]": {"details": "clinical; cited from earlier work"}, "[2]": {"tested_on": "orthotopic, syngeneic tumor", "assay": "Efficacy of Brush prodrugs in orthotopic, syngeneic tumor (tumor volume, tumor weight, body weight)", "type": "in vivo", "protocol": "In FIGS. 5D to 5F, “iBET” refers to OTX-015.\nTumor volumes are calculated after measuring length and width using digital calipers. Tumors were also weighted, and the body weight was measured."}},
  "data": [
    {"smiles": "Cc1sc2c(c1C)C(c1ccc(Cl)cc1)=N[C@@H](CC(=O)Nc1ccc(O)cc1)c1nnc(C)n1-2", "note": "[OTX-015]", "values": [
      {"measurement": "dose-limiting toxicity: anemia", "setting": "[1]", "result": 91, "unit": "%"},
      {"measurement": "dose-limiting toxicity: neutropenia", "setting": "[1]", "result": 51, "unit": "%"},
      {"measurement": "dose-limiting toxicity: thrombocytopenia", "setting": "[1]", "result": 96, "unit": "%"},
      {"measurement": "body weight loss", "setting": "[2]; tolerated dose 100 mpk BID, PO (FIG. 5C)", "result": "minor weight loss"},
      {"measurement": "body weight loss", "setting": "[2]; tolerated doses 5 mpk and 10 mpk (FIG. 5F)", "result": "minor weight loss"}
    ]}
  ]
}
